Reference: patent US20100324123A1, “GLMS RIBOSWITCHES, STRUCTURE-BASED COMPOUND DESIGN WITH GLMS RIBOSWITCHES, AND METHODS AND COMPOSITIONS FOR USE OF AND WITH GLMS RIBOSWITCHES” (Yale University, priority 2006, published 2010)
Entries after “also recorded” stand apart in the source; their conditions may differ.

Key:
glmS ribozyme [1] = assay: high-throughput fluorescence screen with bimolecular glmS ribozyme (fluorescein/cy3-labeled substrate); assay type: biochemical, S. aureus; settings: for Fl21 h/Flg h: high-throughput fluorescence screen, fluorescence ratio
glmS ribozyme [2] = assay: activity by electrophoretic in-line probing (gel electrophoresis methods); assay type: binding
[3] = biological target: glmS ribozyme from B. cereus; settings: read-out: apparent dissociation constant (KD); cited from earlier work
[4] = biological target: homologous ribozyme from Bacillus subtilis; settings: Bacillus subtilis glmS ribozyme; read-out: apparent dissociation constant (KD); cited from earlier work
[5] = system: glmS ribozyme from B. cereus; assay: glmS ribozyme self-cleavage assay (5'-32P-labeled 200-nucleotide construct, PAGE); assay type: biochemical, Bacillus cereus; settings: for ribozyme activation / self-cleavage (in words): FIG. 2b: 1 mM effector, 30 minutes, FIG. 2c: 100 μM, 50 mM HEPES pH 7.5; for ribozyme self-cleavage activity as fraction of the activity exhibited by GlcN6P: FIG. 2c, each at 100 μM
Protocol: Differences from GlcN6P can be seen by comparing the structures to GlcN6P. b) Yields of ribozyme cleavage assays using a 200-nucleotide glmS RNA construct incubated with GlcN6P (1) or with various compounds as indicated. 5′ ^32P-labeled precursor (Pre) RNAs were incubated for 30 minutes in the presence of 1 mM effector as noted for each lane. […] Rate constants for the remaining compounds are estimated to be less than 0.001 min^−1.
The molecular recognition characteristics of the glmS ribozyme was found by determining the effects of GlcN6P and various GlcN6P analogs on the self-cleavage activity of a 200-nucleotide glmS ribozyme construct from B. cereus (FIG. 1). KD values for each ligand were determined by plotting ribozyme rate constants versus ligand concentrations (Experimental Section). […] The amine group of the ligand is also known to be essential for ribozyme function (Winkler 2004; McCarthy 2005). […] Therefore, a series of analogs were tested (FIG. 2) to probe the importance of structural conformation of GlcN6P and of individual functional groups on the pyranose ring.
The glmS ribozyme from B. cereus (FIG. 1a) was generated by in vitro transcription as described previously, (Roth 2006) 5′-^32P-radiolabeled, (Lim 2006) and purified by PAGE. Rate constants were established using methods and reaction conditions similar to those described previously (Roth 2006) with the exception that reaction mixtures contained 50 mM HEPES buffer (pH 7.5 at 23° C.) in place of Tris-HCl buffer. Ligand concentrations and incubation times used are defined for each assay. Ribozyme activity was established by quantitating the amounts of cleaved and uncleaved RNAs using a Typhoon imager (Amersham Biosciences).

glmS ribozymes = settings: cited from earlier work

SMILES | Fl21 h/Flg h (glmS ribozyme [1]) | Activity by electrophoretic in-line probing (glmS ribozyme [2]) | ribozyme activation / self-cleavage (in words) [5] | other results
CC(=O)N[C@H]1C(O)O[C@H](COP(=O)(O)O)[C@@H](O)[C@@H]1O (stereo partly drawn) [AcNGln 6P, N-acetyl-D-glucosamine 6-phosphate] | 2.28 | Weakly | – | –
N[C@H]1C(O)O[C@H](COP(=O)(O)O)[C@@H](O)[C@@H]1O (stereo partly shown) [Compound 1, glucosamine-6-phosphate, reference compound] | 3.36 | Yes | – | increase of fluorescence intensity of fluoroscein (glmS ribozyme [1]; ~160 μM glucosamine-6-phosphate, minimum of 10 hours incubation): ~4 fold; Kd [3]: ~200 µM; Kd [4]: ~200 µM
N[C@@H](C=O)[C@@H](O)[C@@H](O)[C@H](O)COP(=O)(O)O [Compound 2, 2-amino-2-deoxy-D-galactose 6-phosphate] | 1.69 | – | does not induce activity | –
N[C@@H](CO)[C@@H](O)[C@H](O)[C@H](O)COP(=O)(O)O [Compound 3, 2-amino-2-deoxy-D-glucitol-6-phosphate] | 0.80 | No | no detectable activity | –
NC1C(O)O[C@H](COP(=O)(O)S)C(O)[C@@H]1O (stereo partly drawn) [Compound 4, 2-amino-2-deoxy-D-glucose 6-thiophosphate] | 1.11 | No | – | reduction of the rate constant of ribozyme cleavage compared to 1 [5]: approximately two orders of magnitude
CO[C@@H]1O[C@H](COP(=O)(O)O)[C@@H](O)[C@H](O)[C@H]1N [Compound 5, methyl 2-amino-2-deoxy-β-D-glucose 6-phosphate] | 1.02 | No | precludes analog binding | –
CO[C@H]1O[C@H](COP(=O)(O)O)[C@@H](O)[C@H](O)[C@H]1N [Compound 6, methyl 2-amino-2-deoxy-α-D-glucose 6-phosphate] | 1.07 | No | precludes analog binding | –
NC1O[C@H](COP(=O)(O)O)[C@@H](O)[C@H](O)[C@H]1O (stereo partly shown) [Compound 7, 1-amino-1-deoxyglucose 6-phosphate] | 1.00 | No | does not support ribozyme cleavage; also recorded: lowest amount of cleavage | –
N[C@H]1CO[C@H](COP(=O)(O)O)[C@@H](O)[C@@H]1O [Compound 8, 2-amino-1,5-anhydro-2-deoxyglucitol 6-phosphate] | 2.52 | Yes | – | ribozyme self-cleavage activity as fraction of the activity exhibited by GlcN6P [5]: 1/70; melting point: 185 to 187 °C (dec.)
CNC1C(O)O[C@H](COP(=O)(O)O)C(O)[C@@H]1O (stereo partly shown) [Compound 9, 2-methylamino-2-deoxyglucose 6-phosphate] | 3.49 | Yes | only a modest reduction in efficiency compared to GlcN6P | melting point: 185 to 187 °C (dec.)
N[C@H](C=O)[C@@H](O)[C@H](O)[C@H](O)COP(=O)(O)O [Compound 12, 2-amino-2-deoxy-D-mannose 6-phosphate] | 2.89 | Yes | – | ribozyme self-cleavage activity as fraction of the activity exhibited by GlcN6P [5]: 1/35
NC1C(O)O[C@H](COP(=O)(O)O)C(O)[C@H]1O (stereo partly shown) [Compound 13, 2-amino-2-deoxyallose 6-phosphate] | – | – | activity that is similar to GlcN6P | –
N[C@@H]1[C@@H](O)[C@H](O)[C@@H](COP(=O)(O)O)O[C@@H]1O [Gln6P com, reference compound] | 2.24 | Yes | – | –
Cl.N[C@H]1C(O)O[C@H](CO)[C@@H](O)[C@@H]1O (stereo partly drawn) [Gln com, D-(+)-glucosamine hydrochloride, reference compound] | 1.87 | Yes | – | GlcN6P bound by the ribozyme more tightly than glucosamine (glmS ribozymes): > 1000 fold; loss of ligand affinity (in words) (glmS ribozymes; removal of the phosphate group): an even greater loss of ligand affinity
C[N+](C)(C)C1C(O)O[C@H](COP(=O)(O)O)C(O)[C@@H]1O (stereo partly shown) [Me3N-Gln 6P, 2-(trimethylammonio)-2-deoxyglucose 6-phosphate] | – | – | – | melting point: 185 to 187 °C (dec.)
C[N+](C)(C)[C@@H](C=O)[C@@H](O)[C@H](O)[C@H](O)CO [Me3N-Gln, 2-deoxy-2-(trimethylammonio)-D-glucose] | 1.17 | No | – | –
NCCO [ethanolamine] | – | – | – | ribozyme activation (in words) (glmS ribozymes): orders of magnitude less effective than GlcN6P
N[C@H]1C(O)O[C@H](COS(=O)(=O)O)[C@@H](O)[C@@H]1O (stereo partly shown) [glucosamine-6-sulphate] | – | – | – | concentration needed to induce ribozyme activation to the same extent as GlcN6P, relative to GlcN6P (glmS ribozymes): ~100 fold
O=C[C@H](O)[C@@H](O)[C@H](O)[C@H](O)COP(=O)(O)O [glucose-6-phosphate] | – | – | – | ribozyme activation (in words) (glmS ribozymes): completely fails to trigger ribozyme action
NC(CO)CO [serinol] | – | – | – | ribozyme activation (in words) (glmS ribozymes): orders of magnitude less effective than GlcN6P
